The record followed here is publication PMC3312006 (2011).

The target in assay [1] is T1, histone acetyltransferase p300 (KAT3B) (Homo sapiens, UniProt Q09472).
T1 sequence (Q09472 1066-1707): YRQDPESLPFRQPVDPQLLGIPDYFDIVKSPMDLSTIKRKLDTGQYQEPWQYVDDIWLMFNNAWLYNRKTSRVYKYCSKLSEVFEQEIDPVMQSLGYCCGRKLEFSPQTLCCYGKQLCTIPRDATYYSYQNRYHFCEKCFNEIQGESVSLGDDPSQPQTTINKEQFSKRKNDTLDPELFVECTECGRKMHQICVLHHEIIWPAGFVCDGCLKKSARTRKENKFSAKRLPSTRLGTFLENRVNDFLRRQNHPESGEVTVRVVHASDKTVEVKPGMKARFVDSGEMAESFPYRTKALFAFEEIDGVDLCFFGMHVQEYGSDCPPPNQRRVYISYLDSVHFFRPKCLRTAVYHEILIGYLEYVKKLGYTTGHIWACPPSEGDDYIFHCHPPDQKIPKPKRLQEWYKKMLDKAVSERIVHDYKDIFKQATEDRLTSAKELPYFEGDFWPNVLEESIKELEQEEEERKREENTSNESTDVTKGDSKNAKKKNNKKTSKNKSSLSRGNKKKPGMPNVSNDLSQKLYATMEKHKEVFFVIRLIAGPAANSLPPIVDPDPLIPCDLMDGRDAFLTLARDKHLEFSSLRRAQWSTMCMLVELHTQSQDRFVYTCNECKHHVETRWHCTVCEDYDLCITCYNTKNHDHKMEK
The assay can be described thus: in vitro filter-binding HAT assay with […]acetyl-CoA and HeLa core histones. The assay is classed as biochemical.

For assay [2], the target named is T1, histone acetyltransferase p300 (KAT3B). Briefly: biochemical.

Turning to `CCCCC[C@H](O)/C=C/[C@H]1C(=O)C=C[C@@H]1C/C=C\CCCC(=O)O` [PGJ2], the IC50 in assay [1] is greater than 2000 nM. `CCCCC[C@H](O)C/C=C1/C(=O)C=C[C@@H]1C/C=C\CCCC(=O)O` [Δ^12-PGJ2] came in with an IC50 in assay [2] of roughly 750 nM.

In general, IC50 refers to the concentration needed to halve the response being measured. Read a high IC50 as weaker potency in that assay.
